Laboratory results: patent US9586931B2 (Merck Sharp & Dohme Corp., priority 2012, dated 2017)

The compounds below were run against T1, recombinant human GST-Syk (Homo sapiens, UniProt P43405) (assay: Homogeneous Time-Resolved Fluorescence (HTRF) assay for the recombinant human Syk enzyme). Details: recombinant human GST-Syk 5 pM, ATP 25 μM, 10-dose titration 10 μM to 0.508 nM; read-out: rhSYK Activity IC50.
T1 construct: purchased Carna Biosciences 08-176
Format: biochemical
Summary of the method: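 Detection used time-resolved fluorescence 30 min after adding a quench mix (40 mM EDTA, 15 mM Tris pH 7.5, 0.01% Tween 20) containing 2 nM Europium anti-pTyr antibody and 70 nM streptavidin-APC. This followed 45 min of room-temperature peptide phosphorylation by recombinant GST-tagged human Syk.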

Row | Structure (SMILES) | IC50
1 | Cc1cc(Nc2cc(C(F)(F)F)ccn2)nc(-c2cn(C(C(=O)O)c3ccc(F)cc3)nn2)c1 (stereo not drawn) [Example 3.10, (4-fluorophenyl)[4-(4-methyl-6-{[4-(trifluoromethyl)pyridin-2-yl]amino}pyridin-2-yl)-1H-1,2,3-triazol-1-yl]acetic acid] | 3.9 nM
2 | Cc1cc(Nc2cc(C(F)(F)F)ccn2)nc(-c2cn(C(C(=O)O)c3ccccc3)nn2)c1 (stereo not drawn) [Example 3.11, [4-(4-methyl-6-{[4-(trifluoromethyl)pyridin-2-yl]amino}pyridin-2-yl)-1H-1,2,3-triazol-1-yl](phenyl)acetic acid] | 5.1 nM
3 | Cc1cc(Nc2cc(C(F)(F)F)ccn2)nc(-c2cn([C@H](C)C(=O)N3CCC[C@H]3C(=O)O)nn2)c1 [Example 3.12, 1-{(2R)-2-[4-(4-methyl-6-{[4-(trifluoromethyl)pyridin-2-yl]amino}pyridin-2-yl)-1H-1,2,3-triazol-1-yl]propanoyl}proline] | 105 nM
4 | Cc1cc(Nc2cc(C(F)(F)F)ccn2)nc(-c2cn([C@@H](C)C(=O)N3CCC[C@H]3C(=O)O)nn2)c1 [Example 3.13, 1-{(2S)-2-[4-(4-methyl-6-{[4-(trifluoromethyl)pyridin-2-yl]amino}pyridin-2-yl)-1H-1,2,3-triazol-1-yl]propanoyl}proline] | 95 nM
5 | Cc1cc(Nc2cc(C(F)(F)F)ccn2)nc(-c2cn([C@H](C)C(=O)NCC(=O)O)nn2)c1 [Example 3.14, N-{(2R)-2-[4-(4-methyl-6-{[4-(trifluoromethyl)pyridin-2-yl]amino}pyridin-2-yl)-1H-1,2,3-triazol-1-yl]propanoyl}glycine] | 9.6 nM
6 | Cc1cc(Nc2cc(C(F)(F)F)ccn2)nc(-c2cn([C@@H](C)C(=O)NCC(=O)O)nn2)c1 [Example 3.15, N-{(2S)-2-[4-(4-methyl-6-{[4-(trifluoromethyl)pyridin-2-yl]amino}pyridin-2-yl)-1H-1,2,3-triazol-1-yl]propanoyl}glycine] | 8.9 nM
7 | Cc1cc(Nc2nccc(C(F)(F)F)n2)cc(-c2cn(C3CCC(C(=O)O)CC3)nn2)c1 (stereo not drawn) [Example 3.16, 4-[4-(3-methyl-5-{[4-(trifluoromethyl)pyrimidin-2-yl]amino}phenyl)-1H-1,2,3-triazol-1-yl]cyclohexanecarboxylic acid] | 33.3 nM
8 | Cc1cc(Nc2cc(C(F)(F)F)ccn2)nc(-c2cn(C(CO)c3ccc(C(=O)O)cc3)nn2)c1 (stereo not drawn) [Example 3.17, 4-{2-hydroxy-1-[4-(4-methyl-6-{[4-(trifluoromethyl)pyridin-2-yl]amino}pyridin-2-yl)-1H-1,2,3-triazol-1-yl]ethyl}benzoic acid] | 0.1 nM
9 | Cc1cc(Nc2cc(C(F)(F)F)ccn2)nc(-c2cn(CC(O)c3ccc(C(=O)O)cc3)nn2)c1 (stereo not drawn) [Example 3.18, 4-{1-hydroxy-2-[4-(4-methyl-6-{[4-(trifluoromethyl)pyridin-2-yl]amino}pyridin-2-yl)-1H-1,2,3-triazol-1-yl]ethyl}benzoic acid] | 1.9 nM
10 | Cc1cc(Nc2cc(C(F)(F)F)ccn2)nc(-c2cn(C3CCC(C(=O)O)c4ccccc43)nn2)c1 (stereo not drawn) [Example 3.19, 4-[4-(4-methyl-6-{[4-(trifluoromethyl)pyridin-2-yl]amino}pyridin-2-yl)-1H-1,2,3-triazol-1-yl]-1,2,3,4-tetrahydronaphthalene-1-carboxylic acid] | 16 nM
11 | Cc1cc(Nc2cc(C(F)(F)F)ccn2)nc(-c2cn(C(C)C(O)CC#N)nn2)c1 (stereo not drawn) [Example 4.2, 3-hydroxy-4-[4-(4-methyl-6-{[4-(trifluoromethyl)pyridin-2-yl]amino}pyridin-2-yl)-1H-1,2,3-triazol-1-yl]pentanenitrile] | 12.8 nM
12 | Cc1cc(Nc2cc(C(F)(F)F)ccn2)nc(-c2cn(C(C)C(O)CC#N)nn2)c1 (stereo not drawn) [Example 4.3, 3-hydroxy-4-[4-(4-methyl-6-{[4-(trifluoromethyl)pyridin-2-yl]amino}pyridin-2-yl)-1H-1,2,3-triazol-1-yl]pentanenitrile] | 4.6 nM
13 | Cc1cc(Nc2cc(C(F)(F)F)ccn2)nc(-c2cn(C(C)C(O)CC#N)nn2)c1 (stereo not drawn) [Example 4.10, 3-hydroxy-4-[4-(4-methyl-6-{[4-(trifluoromethyl)pyridin-2-yl]amino}pyridin-2-yl)-1H-1,2,3-triazol-1-yl]pentanenitrile] | 5.7 nM
14 | COC(=O)C1CCC(O)(Cn2cc(-c3cc(C)cc(Nc4nccc(C(F)(F)F)n4)c3)nn2)CC1(C)C (stereo not drawn) [Example 4.11, methyl 4-hydroxy-2,2-dimethyl-4-{[4-(3-methyl-5-{[4-(trifluoromethyl)pyrimidin-2-yl]amino}phenyl)-1H-1,2,3-triazol-1-yl]methyl}cyclohexanecarboxylate] | 145 nM
15 | COC(=O)C1CCC(O)(Cn2cc(-c3cc(C)cc(Nc4cc(C(F)(F)F)ccn4)n3)nn2)CC1(C)C (stereo not drawn) [Example 4.12, methyl 4-hydroxy-2,2-dimethyl-4-{[4-(4-methyl-6-{[4-(trifluoromethyl)pyridin-2-yl]amino}pyridin-2-yl)-1H-1,2,3-triazol-1-yl]methyl}cyclohexanecarboxylate] | 145 nM
16 | Cc1cc(Nc2cc(C(F)(F)F)ccn2)nc(-c2cn(CC3(O)CCOCC3)nn2)c1 [Example 4.13, 4-{[4-(4-methyl-6-{[4-(trifluoromethyl)pyridin-2-yl]amino}pyridin-2-yl)-1H-1,2,3-triazol-1-yl]methyl}tetrahydro-2H-pyran-4-ol] | 25.6 nM
17 | Cc1cc(Nc2nccc(C(F)(F)F)n2)cc(-c2cn(CC3(O)CCOCC3)nn2)c1 [Example 4.14, 4-{[4-(3-methyl-5-{[4-(trifluoromethyl)pyrimidin-2-yl]amino}phenyl)-1H-1,2,3-triazol-1-yl]methyl}tetrahydro-2H-pyran-4-ol] | 48.1 nM
18 | Cc1cc(Nc2cc(C(F)(F)F)ccn2)nc(-c2cn(C3CNCC3O)nn2)c1 (stereo not drawn) [Example 4.15, 4-[4-(4-methyl-6-{[4-(trifluoromethyl)pyridin-2-yl]amino}pyridin-2-yl)-1H-1,2,3-triazol-1-yl]pyrrolidin-3-ol] | 32.9 nM
19 | COC(=O)c1ccc(C(CO)n2cc(-c3cc(C)cc(Nc4cc(C(F)(F)F)ccn4)n3)nn2)cc1 (stereo not drawn) [Example 4.16, methyl 4-{2-hydroxy-1-[4-(4-methyl-6-{[4-(trifluoromethyl)pyridin-2-yl]amino}pyridin-2-yl)-1H-1,2,3-triazol-1-yl]ethyl}benzoate] | 40.3 nM
20 | COC(=O)c1ccc(C(O)Cn2cc(-c3cc(C)cc(Nc4cc(C(F)(F)F)ccn4)n3)nn2)cc1 (stereo not drawn) [Example 4.17, methyl 4-{1-hydroxy-2-[4-(4-methyl-6-{[4-(trifluoromethyl)pyridin-2-yl]amino}pyridin-2-yl)-1H-1,2,3-triazol-1-yl]ethyl}benzoate] | 26.6 nM
21 | Cc1cc(Nc2cc(C(F)(F)F)ccn2)nc(-c2cn(CC(C)(O)C(=O)O)nn2)c1 (stereo not drawn) [Example 4.18, 2-hydroxy-2-methyl-3-[4-(4-methyl-6-{[4-(trifluoromethyl)pyridin-2-yl]amino}pyridin-2-yl)-1H-1,2,3-triazol-1-yl]propanoic acid] | 26.6 nM
22 | Cc1cc(Nc2cc(C(F)(F)F)ccn2)nc(-c2cn(C[C@H](O)C(=O)O)nn2)c1 [Example 4.19, (2S)-2-hydroxy-3-[4-(4-methyl-6-{[4-(trifluoromethyl)pyridin-2-yl]amino}pyridin-2-yl)-1H-1,2,3-triazol-1-yl]propanoic acid] | 14.9 nM
23 | Cc1cc(Nc2cc(C(F)(F)F)ccn2)nc(-c2cn(C[C@@H](O)C(=O)O)nn2)c1 [Example 4.20, (2R)-2-hydroxy-3-[4-(4-methyl-6-{[4-(trifluoromethyl)pyridin-2-yl]amino}pyridin-2-yl)-1H-1,2,3-triazol-1-yl]propanoic acid] | 17 nM
24 | Cc1cc(Nc2cc(C(F)(F)F)ccn2)nc(-c2cn(CC(O)CN)nn2)c1 (stereo not drawn) [Example 4.22, 1-amino-3-[4-(4-methyl-6-{[4-(trifluoromethyl)pyridin-2-yl]amino}pyridin-2-yl)-1H-1,2,3-triazol-1-yl]propan-2-ol] | 3 nM
25 | COCC(O)Cn1cc(-c2cc(C)cc(Nc3cc(C(F)(F)F)ccn3)n2)nn1 (stereo not drawn) [Example 4.23, 1-methoxy-3-[4-(4-methyl-6-{[4-(trifluoromethyl)pyridin-2-yl]amino}pyridin-2-yl)-1H-1,2,3-triazol-1-yl]propan-2-ol] | 5.4 nM
26 | Cc1cc(Nc2cc(C(F)(F)F)ccn2)nc(-c2cn(CC(O)C(C)C)nn2)c1 (stereo not drawn) [Example 4.24, 3-methyl-1-[4-(4-methyl-6-{[4-(trifluoromethyl)pyridin-2-yl]amino}pyridin-2-yl)-1H-1,2,3-triazol-1-yl]butan-2-ol] | 8.3 nM
27 | Cc1cc(Nc2cc(C(F)(F)F)ccn2)nc(-c2cn(CC(O)C(C)(C)C)nn2)c1 (stereo not drawn) [Example 4.25, 3,3-dimethyl-1-[4-(4-methyl-6-{[4-(trifluoromethyl)pyridin-2-yl]amino}pyridin-2-yl)-1H-1,2,3-triazol-1-yl]butan-2-ol] | 12.1 nM
28 | Cc1cc(Nc2cc(C(F)(F)F)ccn2)nc(-c2cn(C[C@]3(O)C[C@H](C#N)C3)nn2)c1 [Example 4.26, trans-3-hydroxy-3-{[4-(4-methyl-6-{[4-(trifluoromethyl)pyridin-2-yl]amino}pyridin-2-yl)-1H-1,2,3-triazol-1-yl]methyl}cyclobutanecarbonitrile] | 0.7 nM
29 | Cc1cc(Nc2cc(C(F)(F)F)ccn2)nc(-c2cn(CC3(O)CCC3)nn2)c1 [Example 4.27, 1-{[4-(4-methyl-6-{[4-(trifluoromethyl)pyridin-2-yl]amino}pyridin-2-yl)-1H-1,2,3-triazol-1-yl]methyl}cyclobutanol] | 2 nM
30 | Cc1cc(Nc2cc(C(F)(F)F)ccn2)nc(-c2cn(CC(O)Cn3cccn3)nn2)c1 (stereo not drawn) [Example 4.28, 1-[4-(4-methyl-6-{[4-(trifluoromethyl)pyridin-2-yl]amino}pyridin-2-yl)-1H-1,2,3-triazol-1-yl]-3-(1H-pyrazol-1-yl)propan-2-ol] | 6.6 nM
